The target of one experiment is T1, ALKBH5 (Homo sapiens, UniProt Q6P6C2).
T1 construct: pNIC28-Bsa4 ALKBH5 (encompassing residues 66-292); made in house; host or cells: E. coli BL21 (DE3) Rosetta T1R
In words: HPLC-based inhibition assay for ALKBH5, m6A-ssRNA substrate. To be noted: 5-mer m6A-ssRNA substrate. It counts as biochemical. As for the experimental part:
Figure S4. Enzyme inhibition curves of 12 against FTO and ALKBH5, as determined by a HPLC-based assay using m6A-containing ssRNA substrates. The substrate sequences for the FTO and ALKBH5 assays are 5’-CUUGUCA(m6A)CAGCAGA-3’ and 5’-GG(m6A)CU-3’, […]
respectively, which represents >100-fold selectivity for FTO over ALKBH5.
(1 picture or pasted object on this page, not shown here) […]
chloride) over 18 min, at a flow rate of 1 mL/min at 40°C. The UV detection wavelength was set at 266 nm. The percentage inhibition was estimated based on the peak areas of the m6A-ssRNA substrate and the corresponding demethylated product. For IC50 determination, eight […]
were then calculated from the variation in percentage demethylation at different inhibitor concentrations, using nonlinear regression, with normalized dose-response fit on GraphPad […]
HPLC-based inhibition assays for AlkB and ALKBH2
The assay was modified from previously reported method.[18] A 15-mer m1A-ssDNA substrate with the sequence 5’-AAAGCAG(m1A)ATTCGAA-3 ’ (Yale University, W.M.
Keck Foundation Biotechnology Resource Laboratory) was used in this inhibition assay. The assay was performed in triplicate for each inhibitor, in a final reaction volume of 25 µL. […]

In another experiment the test system is PHD2. Set-up: method as in PMID 16858410. To be noted: known inhibitor; cited from earlier work.

Drawing on PMC5424463, “A strategy based on nucleotide specificity leads to a subfamily-selective and cell-active inhibitor of N ^6-methyladenosine demethylase FTO” (Chemical Science, 2014), this text covers IC50 for two compounds.

Each structure is given as a SMILES string.

T1 sequence (Q6P6C2 66-292): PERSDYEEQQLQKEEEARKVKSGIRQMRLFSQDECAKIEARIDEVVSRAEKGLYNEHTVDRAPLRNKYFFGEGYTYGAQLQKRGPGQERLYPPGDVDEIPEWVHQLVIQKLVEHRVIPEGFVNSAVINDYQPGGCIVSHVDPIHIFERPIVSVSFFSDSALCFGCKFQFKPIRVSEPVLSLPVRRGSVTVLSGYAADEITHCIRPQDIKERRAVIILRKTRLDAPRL

Take `O=C(O)/C=C/C(=O)NNC(=O)c1cnccc1Cc1ccccc1` [Compound 12]: the IC50 (commonly the concentration that gives 50% inhibition) at ALKBH5 amounted to 96.5 µM. As to `O=C(O)/C=C/C(=O)NNC(=O)c1cccnc1` [Compound 21], the IC50 in the experiment on PHD2 was 0.082 µM.
